Laboratory results taken from ChEMBL document CHEMBL1136674, “Antimycobacterial pimarane diterpenes from the Fungus Diaporthe sp” (Bioorg Med Chem Lett, 2003).
≈ marks a conversion by molar mass, not a printed value.

What was measured:
KB = assay: Cytotoxicity against KB cell line; assay type: functional, cell-based; settings: Homo sapiens
BC1 cell line = assay: Cytotoxicity against BC-1 cell line; assay type: functional, cell-based; settings: Homo sapiens
[1] = test system: Mycobacterium tuberculosis; assay: Antitubercular activity against Mycobacterium tuberculosis; assay type: functional
Vero = assay: Cytotoxicity against vero cell line; assay type: functional, cell-based; settings: Chlorocebus sabaeus

## Cc1c2ccncc2c(C)c2c1[nH]c1ccccc12 [ELLIPTECINE]
KB
  IC50: 0.3 µg/mL (≈ 1.22 µM)
BC1 cell line
  IC50: 0.3 µg/mL (≈ 1.22 µM)

## C=C[C@]1(C)C=C2C(O)[C@]3(O)OC[C@@]4(CCCC(C)(C)[C@@]43O)[C@@]2(O)[C@H](O)C1 (stereo partly drawn) [DIAPORTHEIN A]
[1]
  MIC: 200 µg/mL (≈ 546 µM)
Vero
  IC50: > 50 µg/mL

## C=C[C@]1(C)C=C2C(=O)[C@]3(O)OC[C@@]4(CCCC(C)(C)[C@@]43O)[C@@]2(O)[C@H](O)C1 [DIAPORTHEIN B]
[1]
  MIC: 3.1 µg/mL (≈ 8.51 µM)
Vero
  IC50: 1.5 µg/mL (≈ 4.12 µM)

## NNC(=O)c1ccncc1 [ISONIAZID]
[1]
  MIC: 0.09 µg/mL (≈ 0.656 µM)

## NC[C@H]1O[C@H](O[C@H]2[C@H](O)[C@@H](O[C@H]3O[C@H](CO)[C@@H](O)[C@H](N)[C@H]3O)[C@H](N)C[C@@H]2N)[C@H](O)[C@@H](O)[C@@H]1O.O=S(=O)(O)O [KANAMYCIN SULFATE]
[1]
  MIC: 5 µg/mL
